Measured values: publication PMC5870887 (Bioorganic & medicinal chemistry letters, 2018)

target: recombinant α-synuclein fibrils (Homo sapiens, UniProt P37840); test: Thioflavin T competitive binding fluorescence assay; details: Thioflavin T assay Ki, mean ± SD, at least three experiments, NB = no binding was measurable (concentrations up to 10 μM)

Ki [µM] | SMILES
0.68 ± 0.139 | COc1ccc2ccc(/C=C/c3ccccc3)nc2c1 [Compound 3, (E)-7-methoxy-2-styrylquinoline]
0.192 ± 0.001 | COc1ccc2nc(/C=C/c3ccccc3)ccc2c1 [Compound 2, (E)-6-Methoxy-2-styrylquinoline]
0.015 ± 0.003 | COc1cc(-c2nc(-c3ccc4cc(OCCF)ccc4n3)no2)ccn1 [Compound 28, 3-(6-(2-Fluoroethoxy)quinolin-2-yl)-5-(2-methoxypyridin-4-yl)-1,2,4-oxadiazole]

same assay, conditions: mean ± SD, at least three experiments, NB = no binding was measurable (concentrations up to 10 μM)

Thioflavin T assay Ki | SMILES
no binding | COc1ccc2nc(/C=C/c3ccncc3Cl)ccc2c1 [Compound 15, (E)-2-(2-(3-Chloropyridin-4-yl)vinyl)-6-methoxyquinoline]
no binding | COc1cccc2nc(/C=C/c3ccccc3)ccc12 [Compound 1, (E)-5-Methoxy-2-styrylquinoline]
moderate binding | COc1ccc2nc(/C=C/c3ccncc3Br)ccc2c1 [Compound 16, (E)-2-(2-(3-Bromopyridin-4-yl)vinyl)-6-methoxyquinoline]
no binding | COc1ccc2nc(/C=C/c3ccnc(F)c3)ccc2c1 [Compound 11, (E)-2-(2-(2-Fluoropyridin-4-yl)vinyl)-6-methoxyquinoline]
no binding | COc1cccc2ccc(/C=C/c3ccccc3)nc12 [Compound 4, (E)-8-Methoxy-2-styrylquinoline]

same assay, conditions: read-out: Thioflavin T assay Ki, mean ± SD, at least three experiments, NB = no binding was measurable (concentrations up to 10 μM)

Ki [µM] | SMILES
> 10 | COCOc1ccc2nc(-c3noc(-c4ccnc(OC)c4)n3)ccc2c1 [Compound 29, 3-(6-(Methoxymethoxy)quinolin-2-yl)-5-(2-methoxypyridin-4-yl)-1,2,4-oxadiazole]
> 10 | COc1cc(/C=C/c2ccncc2)nc2ccccc12 [Compound 6, (E)-4-Methoxy-2-(2-(pyridin-4-yl)vinyl)quinolone]
> 10 | COc1ccc2nc(/C=C/c3ccncc3Cl)ccc2c1 [Compound 15, (E)-2-(2-(3-Chloropyridin-4-yl)vinyl)-6-methoxyquinoline]
0.052 ± 0.021 | COc1ccc2nc(/C=C/c3ccnc(OC)c3)ccc2c1 [Compound 13, (E)-6-Methoxy-2-(2-(2-methoxypyridin-4-yl)vinyl)quinolone]
> 10 | COc1cc2ccccc2nc1/C=C/c1ccncc1 [Compound 5, (E)-3-Methoxy-2-(2-(pyridin-4-yl)vinyl)quinolone]
> 10 | COc1ccc2nc(-c3noc(-c4ccn5ccnc5c4)n3)ccc2c1 [Compound 31, 5-(Imidazo[1,2-a]pyridin-7-yl)-3-(6-methoxyquinolin-2-yl)-1,2,4-oxadiazole]
> 10 | COc1cccc2nc(/C=C/c3ccccc3)ccc12 [Compound 1, (E)-5-Methoxy-2-styrylquinoline]
0.052 ± 0.038 | COc1ccc2nc(/C=C/c3ccncc3)ccc2c1 [Compound 8, (E)-6-Methoxy-2-(2-(pyridin-4-yl)vinyl)quinolone]
> 10 | COc1ccc2ccc(/C=C/c3ccncc3)nc2c1 [Compound 9, (E)-7-Methoxy-2-(2-(pyridin-4-yl)vinyl)quinolone]
0.056 ± 0.04 | COc1cccc2nc(/C=C/c3ccncc3)ccc12 [Compound 7, (E)-5-Methoxy-2-(2-(pyridin-4-yl)vinyl)quinolone]
> 10 | COc1ccc2nc(/C=C/c3ccnc(F)c3)ccc2c1 [Compound 11, (E)-2-(2-(2-Fluoropyridin-4-yl)vinyl)-6-methoxyquinoline]
> 10 | FCCOc1ccc2nc(-c3noc(-c4ccn5ccnc5c4)n3)ccc2c1 [Compound 33, 3-(6-(2-Fluoroethoxy)quinolin-2-yl)-5-(imidazo[1,2-a]pyridin-7-yl)-1,2,4-oxadiazole]
0.018 ± 0.001 | COc1cc(/C=C/c2ccc3cc(OCCF)ccc3n2)ccn1 [Compound 14, (E)-6-(2-Fluoroethoxy)-2-(2-(2-methoxypyridin-4-yl)vinyl)quinolone]
> 10 | COc1cc(-c2nc(-c3ccc4cc(OC(C)C)ccc4n3)no2)ccn1 [Compound 30, 3-(6-Isopropoxyquinolin-2-yl)-5-(2-methoxypyridin-4-yl)-1,2,4-oxadiazole]
> 10 | COc1cccc2ccc(/C=C/c3ccncc3)nc12 [Compound 10, (E)-8-Methoxy-2-(2-(pyridin-4-yl)vinyl)quinolone]
> 10 | COc1cccc2ccc(/C=C/c3ccccc3)nc12 [Compound 4, (E)-8-Methoxy-2-styrylquinoline]
> 10 | CC(C)Oc1ccc2nc(-c3noc(-c4ccn5ccnc5c4)n3)ccc2c1 [Compound 32, 5-(Imidazo[1,2-a]pyridin-7-yl)-3-(6-isopropoxyquinolin-2-yl)-1,2,4-oxadiazole]
> 10 | COc1ccc2nc(-c3noc(-c4cccnc4)n3)ccc2c1 [Compound 26, 3-(6-Methoxyquinolin-2-yl)-5-(pyridin-3-yl)-1,2,4-oxadiazole]
> 10 | COCOc1ccc2nc(-c3noc(-c4ccn5ccnc5c4)n3)ccc2c1 [Compound 34, 5-(Imidazo[1,2-a]pyridin-7-yl)-3-(6-(methoxymethoxy)-quinolin-2-yl)-1,2,4-oxadiazole]
